{"source": "the PolyMetriX glass transition set", "note": "± gives the standard deviation of the reports."}
{"units": {"glass transition temperature": "°C"}}
{"smiles": "*c1ccc(Oc2ccc(-c3nc4cc(Oc5ccc6nc(-c7ccccc7)c(*)nc6c5)ccc4nc3-c3ccccc3)cc2)cc1", "note": "(repeat unit)", "glass transition temperature": 263.00}
{"smiles": "*CC(*)OC(=O)OCCC(F)(F)C(F)(F)C(F)(F)C(F)(F)C(F)(F)C(F)(F)F", "note": "(repeat unit)", "glass transition temperature": 37.00}
{"smiles": "*c1ccc2c(c1)C(=O)N(c1ccc(-c3ccc(N4C(=O)c5ccc(C(*)(c6ccccc6)C(F)(F)F)cc5C4=O)cc3C(F)(F)F)c(C(F)(F)F)c1)C2=O", "note": "(repeat unit)", "glass transition temperature": 280.00}
{"smiles": "*Nc1cccc(NC(=O)c2cccc(C(=O)Nc3ccc(C(=O)NC(*)=S)cc3)c2)c1", "note": "(repeat unit)", "glass transition temperature": 270.00}
{"smiles": "*CC(*)C(=O)OC([2H])([2H])[2H]", "note": "(repeat unit)", "glass transition temperature": 35.00}
{"smiles": "*CC(*)(C)C(=O)OCCCCCCOc1cccc(C(=O)Oc2ccc(C#N)cc2)c1", "note": "(repeat unit)", "glass transition temperature": 38.00}
{"smiles": "*c1ccc2nc(*)cc(-c3ccccc3)c2c1", "note": "(repeat unit)", "glass transition temperature": 415.00}
{"smiles": "*CC(*)(C)C(=O)OC1CC(C)CCC1C(C)C", "note": "(repeat unit)", "glass transition temperature": 147.00}
{"smiles": "*c1nc(C)nc(N(CCCCN(*)c2ccccc2)c2ccccc2)n1", "note": "(repeat unit)", "glass transition temperature": 85.00}
{"smiles": "*CC#CC#CCOc1ccc(C(=O)OCCN(CCOC(=O)c2ccc(O*)cc2)c2ccc(/N=N/c3ccc(C#N)cc3)cc2)cc1", "note": "(repeat unit)", "glass transition temperature": 121.00}
{"smiles": "*O[Si](*)(C)CCCCCCCCCCC(=O)OCCC(F)(F)C(F)(F)C(F)(F)C(F)(F)C(F)(F)C(F)(F)C(F)(F)C(F)(F)F", "note": "(repeat unit)", "glass transition temperature": -78.00}
{"smiles": "*/C(=C(/*)c1cccc([Si](C)(C)C)c1)c1ccccc1", "note": "(repeat unit)", "glass transition temperature": 200.00}
{"smiles": "*CCCCCCNC(=O)CC(C)c1ccc(C(C)CC(=O)N*)cc1", "note": "(repeat unit)", "glass transition temperature": 88.00}
{"smiles": "*c1cc(C(C)(C)c2ccc(O)cc2)cc(*)c1O", "note": "(repeat unit)", "glass transition temperature": 135.00}
{"smiles": "*Oc1ccc(S(=O)(=O)c2ccc(Oc3ccc(/C=C4\\CCC/C(=C\\c5ccc(Oc6ccc(S(=O)(=O)c7ccc(Oc8ccc(C(C)(C)c9ccc(*)cc9)cc8)cc7)cc6)cc5)C4=O)cc3)cc2)cc1", "note": "(repeat unit)", "glass transition temperature": 194.00}
{"smiles": "*c1ccc(N2C(=O)c3ccc(Oc4ccc(C(C)(C)c5cccc(Oc6ccc7c(c6)C(=O)N(*)C7=O)c5)cc4)cc3C2=O)cc1", "note": "(repeat unit)", "glass transition temperature": 268.00}
{"smiles": "*CC(*)c1ccc(CCCCCCCCCCCCCC)cc1", "note": "(repeat unit)", "glass transition temperature": -36.00}
{"smiles": "*CCOCCOC(=O)/C=C/C(=O)O*", "note": "(repeat unit)", "glass transition temperature": -8.20}
{"smiles": "*CCSSCCOCO*", "note": "(repeat unit)", "glass transition temperature": -57.50}
{"smiles": "*CC(*)C(=O)OCCOC(F)(F)C(F)F", "note": "(repeat unit)", "glass transition temperature": -22.00}
{"smiles": "*CC(*)(C)C(=O)OCCCN(CCO)c1ccc(/N=N/c2ccc([N+](=O)[O-])cc2)cc1", "note": "(repeat unit)", "glass transition temperature": 131.00}
{"smiles": "*CCCCCCCN1C(=O)c2ccc(Oc3ccc4c(c3)C(=O)N(*)C4=O)cc2C1=O", "note": "(repeat unit)", "glass transition temperature": 110.00}
{"smiles": "*C(=O)Nc1ccc(NC(=O)c2ccc3c(c2)C(=O)N(c2cccc(P(=O)(c4ccccc4)c4cccc(N5C(=O)c6ccc(*)cc6C5=O)c4)c2)C3=O)cc1", "note": "(repeat unit)", "glass transition temperature": 204.00}
{"smiles": "*C1C2CC(C(=O)OCCc3ccc(N(c4ccccc4)c4cccc5ccccc45)cc3)C(C2)C1*", "note": "(repeat unit)", "glass transition temperature": 333.00}
{"smiles": "*Oc1ccc(C(CC)(c2ccccc2)c2ccc(OC(*)=O)cc2)cc1", "note": "(repeat unit)", "glass transition temperature": 147.00}
{"smiles": "*C(=O)Nc1cccc(Oc2cccc(Oc3cccc(NC(=O)c4ccc5c(c4)C(=O)N(c4cccc(Oc6cccc(Oc7cccc(N8C(=O)c9ccc(*)cc9C8=O)c7)c6C#N)c4)C5=O)c3)c2C#N)c1", "note": "(repeat unit)", "glass transition temperature": 214.00}
{"smiles": "*CC(*)OCCCCCCCCCC", "note": "(repeat unit) [Poly(vinyl n-decyl ether) ]", "glass transition temperature": "-76 ± 8.5"}
{"smiles": "*c1ccc(C2(c3ccc(-c4cc(-c5ccccc5)c5cc(-c6ccc7nc(*)cc(-c8ccccc8)c7c6)ccc5n4)cc3)c3ccccc3-c3ccccc32)cc1", "note": "(repeat unit)", "glass transition temperature": 420.00}
{"smiles": "*c1ccc(OC(=O)c2cccc(C(=O)Oc3ccc(-c4nc5ccccc5nc4*)cc3)c2)cc1", "note": "(repeat unit)", "glass transition temperature": 245.00}
{"smiles": "*CC(*)c1ccc(C(=O)OCCN(C)C)cc1", "note": "(repeat unit)", "glass transition temperature": 91.00}
{"smiles": "*CCCCOC(=O)c1ccc(C(C)(C)c2ccc(C(=O)O*)cc2)cc1", "note": "(repeat unit)", "glass transition temperature": 44.00}
{"smiles": "*CCCCCC(=O)Nc1ccc(Cc2ccc(NC(=O)CCCCCN3C(=O)c4ccc(C(=O)c5ccc6c(c5)C(=O)N(*)C6=O)cc4C3=O)cc2)cc1", "note": "(repeat unit)", "glass transition temperature": 187.00}
{"smiles": "*C(=O)Nc1ccc(/N=N/c2ccc([N+](=O)[O-])cc2)c(NC(=O)c2ccc3c(c2)C(=O)N(c2c(C)cc(Cc4cc(C)c(N5C(=O)c6ccc(*)cc6C5=O)c(C)c4)cc2C)C3=O)c1", "note": "(repeat unit)", "glass transition temperature": 264.00}
{"smiles": "*/C=C/C1CC(*)C2C(=O)N(CCCCCCCCCCCC)C(=O)C12", "note": "(repeat unit)", "glass transition temperature": 50.00}
{"smiles": "*CCCCCCCNC(=O)CCCCCC(=O)N*", "note": "(repeat unit)", "glass transition temperature": 55.00}
{"smiles": "*CC(F)(F)C(F)(F)C(F)(F)COC(=O)NCC(F)(F)C(F)(F)C(F)(F)C(F)(F)CNC(=O)O*", "note": "(repeat unit)", "glass transition temperature": 25.00}
{"smiles": "*Oc1ccc(OC(=O)c2cccc(Oc3cccc(C(*)=O)c3)c2)cc1", "note": "(repeat unit)", "glass transition temperature": 119.00}
{"smiles": "*CCOCCOC(=O)CCCCCCC(=O)O*", "note": "(repeat unit)", "glass transition temperature": -66.00}
{"smiles": "*Oc1ccc(C(=O)c2cccc(C(=O)c3ccc(*)c(C(C)C)c3)c2)cc1CC", "note": "(repeat unit)", "glass transition temperature": 136.00}
{"smiles": "*CCCCCCCCCCCCNC(=O)c1ccc(C(=O)N*)cc1", "note": "(repeat unit)", "glass transition temperature": 130.00}
{"smiles": "*c1ccc2c(c1)C(=O)N(c1cc(N3C(=O)c4ccc(C(*)(C(F)(F)F)C(F)(F)F)cc4C3=O)ccc1OCCCCCCOc1ccc(-c3ccc(OCC)cc3)cc1)C2=O", "note": "(repeat unit)", "glass transition temperature": 150.30}
{"smiles": "*Oc1ccc(OC(=O)c2ccc(-c3ccc(C(*)=O)cc3)cc2-c2ccccc2)c2ccccc12", "note": "(repeat unit)", "glass transition temperature": 165.00}
{"smiles": "*CC(CO*)(CSCCCCC)CSCCCCC", "note": "(repeat unit)", "glass transition temperature": -33.00}
{"smiles": "*O[Si](*)(C)CCCCCCn1c2ccccc2c2ccccc21", "note": "(repeat unit)", "glass transition temperature": -5.00}
{"smiles": "*OS(=O)(=O)c1cccc(S(=O)(=O)Oc2ccc(C(C)(C)c3ccc(*)cc3)cc2)c1", "note": "(repeat unit)", "glass transition temperature": 124.00}
{"smiles": "*CC(*)(C)C(=O)OCc1ccc2c(c1)c1ccccc1n2CCCCCCCCCCCC", "note": "(repeat unit)", "glass transition temperature": 25.00}
{"smiles": "*C(=O)Nc1ccc(Oc2cccc(Oc3ccc(NC(=O)c4ccc5c(c4)C(=O)N(c4ccc(Oc6ccc(C7(c8ccc(Oc9ccc(N%10C(=O)c%11ccc(*)cc%11C%10=O)cc9)cc8)NC(=O)c8ccccc87)cc6)cc4)C5=O)cc3)c2)cc1", "note": "(repeat unit)", "glass transition temperature": 288.00}
{"smiles": "*c1ccc(Oc2ccc(-c3cc(-c4cccc(-c5cc(*)c6ccccc6n5)c4)nc4ccccc34)cc2)cc1", "note": "(repeat unit)", "glass transition temperature": 268.00}
{"smiles": "*N(C)[Si](C)(C)N(C)[Si](*)(C)CC", "note": "(repeat unit)", "glass transition temperature": -20.00}
{"smiles": "*CCN(CCOC(=O)NCCCCCCNC(=O)O*)c1ccccc1", "note": "(repeat unit)", "glass transition temperature": 31.90}
{"smiles": "*O[Si](C)(C)O[Si](C)(C)O[Si](C)(C)O[Si](C)(C)c1ccc([Si](*)(C)C)cc1", "note": "(repeat unit)", "glass transition temperature": -72.00}
{"smiles": "*CCCCCCNC(=O)CCCCC(=O)N*", "note": "(repeat unit) [Poly(hexamethylene adipamide)]", "glass transition temperature": "54.53 ± 5.2"}
{"smiles": "*C(=S)Nc1ccc(Oc2ccc(NC(=S)n3c(=O)c4cc5c(=O)n(*)c(=O)c5cc4c3=O)cc2)cc1", "note": "(repeat unit)", "glass transition temperature": 265.00}
{"smiles": "*CC(*)(C)C(=O)OCCOCC", "note": "(repeat unit)", "glass transition temperature": -16.00}
{"smiles": "*c1ccc(OC(=O)Oc2ccc(C3(*)OC(=O)c4ccccc43)cc2)cc1", "note": "(repeat unit)", "glass transition temperature": 252.20}
{"smiles": "*c1ccc2c(c1)C(=O)N(c1cccc(C(=O)Nc3ccc(NC(=O)c4cccc(N5C(=O)c6ccc(C(*)(C(F)(F)F)C(F)(F)F)cc6C5=O)c4)cc3)c1)C2=O", "note": "(repeat unit)", "glass transition temperature": 311.00}
{"smiles": "*CC(*)c1ccccc1O", "note": "(repeat unit)", "glass transition temperature": 172.00}
{"smiles": "*CC(*)(C)C(=O)OCCCCCCCCOc1ccc(C(=O)Oc2ccc(C(=O)/C=C/c3c(C)c4ccccc4n3CCCC)cc2)cc1", "note": "(repeat unit)", "glass transition temperature": 69.00}
{"smiles": "*c1ccc(Oc2ccc(-c3ccc(Oc4ccc(N5C(=O)c6cccc(Oc7c(C)cc(-c8cc(C)c(Oc9cccc%10c9C(=O)N(*)C%10=O)c(C)c8)cc7C)c6C5=O)cc4)cc3)cc2)cc1", "note": "(repeat unit)", "glass transition temperature": 290.00}
{"smiles": "*CCCCCCOC(=O)OCCCCCCCCCOC(=O)OCCCCCCOc1ccc(C(=O)c2ccc(O*)cc2)cc1", "note": "(repeat unit)", "glass transition temperature": -6.00}
{"smiles": "*Oc1ccc(NC(=C(C#N)C#N)c2cccc(C(Nc3ccc(Oc4ccc(NC(=O)c5ccc(C(=O)Nc6ccc(*)cc6)cc5)cc4)cc3)=C(C#N)C#N)c2)cc1", "note": "(repeat unit)", "glass transition temperature": 274.00}
{"smiles": "*Oc1ccc(/C(=C/c2ccc(-c3ccc(/C=C(\\c4ccccc4)c4ccc(OC(=O)c5cccc(C(*)=O)c5)cc4)cc3)cc2)c2ccccc2)cc1", "note": "(repeat unit)", "glass transition temperature": 224.00}
{"smiles": "*N=P(N=P(N=S(*)(=O)NCCCC)(NCCCC)NCCCC)(NCCCC)NCCCC", "note": "(repeat unit)", "glass transition temperature": -16.00}
{"smiles": "*CC(C)CC(*)(C)C(=O)OC", "note": "(repeat unit)", "glass transition temperature": 16.00}
{"smiles": "*c1ccc(C(c2ccccc2)(c2ccc(N3C(=O)c4ccc(Oc5ccc6c(c5)C(=O)N(*)C6=O)cc4C3=O)cc2)C(F)(F)F)cc1", "note": "(repeat unit)", "glass transition temperature": 293.00}
{"smiles": "*CCCOC(=O)NCCCCCCNC(=O)O*", "note": "(repeat unit)", "glass transition temperature": 55.00}
{"smiles": "*C(F)(F)C1(F)C(F)(F)C(*)(F)C(F)(F)C1(F)F", "note": "(repeat unit) [Perfluoropolymer 3]", "glass transition temperature": "117 ± 0.6"}
